The source of these data is US20220144848A1, “SUBSTITUTED OXOPYRIDINE DERIVATIVES” (Bayer Aktiengesellschaft, priority 2018, published 2022).

The target in one test is T1, human plasma kallikrein (Homo sapiens, UniProt P03952).
T1 construct: purchased Kordia
Kind of test: Determination of the plasma kallikrein activity (fluorogenic peptide substrate H-Pro-Phe-Arg-AMC). It counts as biochemical. To be noted: plasma kallikrein from Kordia, 15 min preincubation, 30 min at 22° C., fluorescence; some as mean values from multiple determinations. As for the experimental part:
To determine the plasma kallikrein inhibition of the substances according to the invention, a biochemical test system is used which utilizes the reaction of a peptidic plasma kallikrein substrate to determine the enzymatic activity of human plasma kallikrein. Here, plasma kallikrein cleaves from the peptidic plasma kallikrein substrate the C-terminal aminomethylcoumarin (AMC), the fluorescence of which is measured. The determinations are carried out in microtitre plates.
Test substances are dissolved in dimethyl sulfoxide and serially diluted in dimethyl sulfoxide (3000 μM to 0.0078 μM; resulting final concentrations in the test: 50 μM to 0.00013 μM). In each case 1 μl of the diluted substance solutions is placed into the wells of white microtitre plates from Greiner (384 wells). 20 μl of assay buffer (50 mM Tris/HCl pH 7.4; 100 mM sodium chloride solution; 5 mM of calcium chloride solution; 0.1% of bovine serum albumin) and 20 μl of plasma kallikrein from Kordia (0.6 nM in assay buffer) are then added successively. After 15 min of incubation, the enzyme reaction is started by addition of 20 μl of the substrate H-Pro-Phe-Arg-AMC dissolved in assay buffer (10 μM in assay buffer) from Bachem, the mixture is incubated at room temperature (22° C.) for 30 min and fluorescence is then measured (excitation: 360 nm, emission: 460 nm). The measured emissions of the test batches with test substance are compared to those of control batches without test substance (only dimethyl sulfoxide instead of test substance in dimethyl sulfoxide), and IC50 values are calculated from the concentration/activity relationships. Activity data from this test are listed in Table B below (some as mean values from multiple independent individual determinations): […]

Another test concerns the target T2, human factor XIa (Homo sapiens, UniProt P03951).
T2 construct: purchased Kordia
Kind of test: Measurement of FXIa inhibition (fluorogenic peptide substrate Boc-Glu(OBzl)-Ala-Arg-AMC). The test is classed as biochemical. The settings on record: factor XIa from Kordia, 15 min preincubation, 30 min at 22° C., fluorescence; some as mean values from multiple determinations. The protocol:
The factor XIa inhibition of the substances according to the invention is determined using a biochemical test system which utilizes the reaction of a peptidic factor XIa substrate to determine the enzymatic activity of human factor XIa. Here, factor XIa cleaves from the peptidic factor XIa substrate the C-terminal aminomethylcoumarin (AMC), the fluorescence of which is measured. The determinations are carried out in microtitre plates.
Test substances are dissolved in dimethyl sulfoxide and serially diluted in dimethyl sulfoxide (3000 μM to 0.0078 μM; resulting final concentrations in the test: 50 μM to 0.00013 μM). In each case 1 μl of the diluted substance solutions is placed into the wells of white microtitre plates from Greiner (384 wells). 20 μl of assay buffer (50 mM of Tris/HCl pH 7.4; 100 mM of sodium chloride; 5 mM of calcium chloride; 0.1% of bovine serum albumin) and 20 μl of factor XIa from Kordia (0.45 nM in assay buffer) are then added successively. After 15 min of incubation, the enzyme reaction is started by addition of 20 μl of the factor XIa substrate Boc-Glu(OBzl)-Ala-Arg-AMC dissolved in assay buffer (10 μM in assay buffer) from Bachem, the mixture is incubated at room temperature (22° C.) for 30 min and fluorescence is then measured (excitation: 360 nm, emission: 460 nm). The measured emissions of the test batches with test substance are compared to those of control batches without test substance (only dimethyl sulfoxide instead of test substance in dimethyl sulfoxide), and IC50 values are calculated from the concentration/activity relationships.

T1 sequence (P03952 391-638 limits assumed): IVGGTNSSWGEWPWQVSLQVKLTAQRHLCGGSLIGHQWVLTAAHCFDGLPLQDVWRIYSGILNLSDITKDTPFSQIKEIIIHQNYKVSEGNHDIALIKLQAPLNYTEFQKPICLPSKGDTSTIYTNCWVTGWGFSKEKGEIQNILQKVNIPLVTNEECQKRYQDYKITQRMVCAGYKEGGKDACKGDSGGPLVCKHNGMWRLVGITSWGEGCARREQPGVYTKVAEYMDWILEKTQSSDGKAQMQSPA
T1 sequence (P03952 20-390 partner limits assumed): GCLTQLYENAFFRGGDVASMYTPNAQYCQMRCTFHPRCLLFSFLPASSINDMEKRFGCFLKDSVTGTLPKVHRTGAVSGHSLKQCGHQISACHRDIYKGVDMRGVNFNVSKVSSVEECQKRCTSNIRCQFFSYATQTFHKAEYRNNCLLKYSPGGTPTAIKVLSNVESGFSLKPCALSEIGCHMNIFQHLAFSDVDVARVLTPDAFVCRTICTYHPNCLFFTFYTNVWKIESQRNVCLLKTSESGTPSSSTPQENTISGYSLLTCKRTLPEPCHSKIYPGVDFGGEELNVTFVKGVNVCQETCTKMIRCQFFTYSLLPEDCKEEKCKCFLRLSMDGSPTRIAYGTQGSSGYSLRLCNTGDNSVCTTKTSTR
T2 sequence (P03951 388-625 limits assumed): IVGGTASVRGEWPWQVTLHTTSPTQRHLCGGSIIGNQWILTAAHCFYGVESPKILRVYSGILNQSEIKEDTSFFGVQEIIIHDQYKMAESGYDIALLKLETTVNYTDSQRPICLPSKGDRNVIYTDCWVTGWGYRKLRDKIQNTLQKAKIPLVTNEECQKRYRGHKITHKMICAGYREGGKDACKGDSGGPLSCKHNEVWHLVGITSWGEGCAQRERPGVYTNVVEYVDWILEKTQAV
T2 sequence (P03951 19-387 partner limits assumed): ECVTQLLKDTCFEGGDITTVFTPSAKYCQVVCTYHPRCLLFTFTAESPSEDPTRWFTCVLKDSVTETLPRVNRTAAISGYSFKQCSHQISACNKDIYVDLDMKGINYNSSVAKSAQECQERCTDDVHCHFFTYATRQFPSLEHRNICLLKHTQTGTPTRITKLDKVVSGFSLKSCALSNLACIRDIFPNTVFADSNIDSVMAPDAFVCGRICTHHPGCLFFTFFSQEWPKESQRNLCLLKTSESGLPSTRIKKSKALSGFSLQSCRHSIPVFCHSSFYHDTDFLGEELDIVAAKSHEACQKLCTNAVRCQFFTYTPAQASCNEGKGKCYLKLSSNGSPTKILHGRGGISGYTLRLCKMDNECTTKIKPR

As to `C[C@@H]1Cc2ccc(Cl)cc2-c2cc(=O)n([C@@H](C[C@@H]3COCCO3)C(=O)Nc3ccc(C(N)=O)c(F)c3)cc2CO1` (single isomer, unassigned) [Example 8], the half-inhibitory concentration (IC50) at human plasma kallikrein worked out at 320 nM; on human factor XIa, 6.6 nM.
On the same counts, the results for `CC[C@@H](C(=O)Nc1ccc(C(N)=O)cc1)n1cc2c(cc1=O)-c1c(ccc(Cl)c1F)C[C@@H](C(F)(F)F)OC2` (single isomer, unassigned) [Example 68] are 170 nM and 6.9 nM.
Turning to `NC(=O)c1ccc(NC(=O)[C@H](C[C@@H]2COCCO2)n2cc3c(cc2=O)-c2cc(Cl)ccc2C[C@@H](C(F)(F)F)OC3)cc1` (single isomer, unassigned) [Example 59], the IC50 against human plasma kallikrein is 89 nM; against human factor XIa it was 0.9 nM.
Turning to `CC(C)C1Cc2ccc(Cl)cc2-c2cc(=O)n(C(C[C@@H]3COCCO3)C(=O)Nc3ccc(C(N)=O)cc3)cc2CO1` (mixture of isomers) [Example 42, 4-({2-(11-Chloro-7-isopropyl-2-oxo-7,8-dihydro-2H-[3]benzoxocino[5,6-c]pyridin-3(5H)-yl)-3-[(2R)-1,4-dioxan-2-yl]propanoyl}amino)benzamide], the half-inhibitory concentration (IC50) was found to be 810 nM against human plasma kallikrein and 3.6 nM against human factor XIa.
On the same counts, the results for `NC(=O)c1ccc(NC(=O)[C@H](C[C@@H]2CCCCO2)n2cc3c(cc2=O)-c2c(ccc(Cl)c2F)C[C@@H](C(F)(F)F)OC3)cc1` (single isomer, unassigned) [Example 69] are 55 nM and 1.1 nM.
On the same counts, the results for `C[C@@H](C(=O)Nc1ccc(C(N)=O)cc1)n1cc2c(cc1=O)-c1c(ccc(Cl)c1F)C[C@@H](C(F)(F)F)OC2` (single isomer, unassigned) [Example 77] are 220 nM and 9.6 nM.
As for `CO[C@H](C[C@@H](C(=O)Nc1ccc(C(N)=O)cc1)n1cc2c(cc1=O)-c1cc(Cl)ccc1C[C@@H](C)OC2)C(F)F` (single isomer, unassigned) [Example 15], the IC50 against human plasma kallikrein came out at 140 nM; against human factor XIa, 3.4 nM.
Consider `COCC[C@@H](C(=O)Nc1ccn2ncnc2c1)n1cc2c(cc1=O)-c1cc(Cl)ccc1C[C@@H](C(F)(F)F)OC2` (single isomer, unassigned) [Example 65], for which the results for the half-inhibitory concentration (IC50) on human plasma kallikrein and against human factor XIa were 120 nM and 6.8 nM, respectively.
For `NC(=O)c1ccc(NC(=O)C(C[C@@H]2CCCCO2)n2cc3c(cc2=O)-c2cc(Cl)ccc2CC(C(F)(F)F)OC3)cc1F` (mixture of isomers) [Example 50, 4-({2-[11-Chloro-2-oxo-7-(trifluoromethyl)-7,8-dihydro-2H-[3]benzoxocino[5,6-c]pyridin-3(5H)-yl]-3-[(2S)-tetrahydro-2H-pyran-2-yl]propanoyl}amino)-2-fluorobenzamide] the same measures were 1100 nM and 14 nM.
For `NC(=O)c1ccc(NC(=O)C(C[C@@H]2COCCO2)n2cc3c(cc2=O)-c2cc(Cl)ccc2CC(C(F)(F)F)OC3)cc1` (mixture of isomers) [Example 58, 4-({2-[11-Chloro-2-oxo-7-(trifluoromethyl)-7,8-dihydro-2H-[3]benzoxocino[5,6-c]pyridin-3(5H)-yl]-3-[(2R)-1,4-dioxan-2-yl]propanoyl}amino)benzamide] the same measures were 230 nM and 2.1 nM.
For `CO[C@@H](C)C[C@@H](C(=O)Nc1ccc(C(N)=O)cc1)n1cc2c(cc1=O)-c1c(ccc(Cl)c1F)C[C@@H](C)O[C@H]2C` (single isomer, unassigned) [Example 79] the same measures were 250 nM and 26 nM.
For the compound `C[C@@H]1Cc2ccc(Cl)cc2-c2cc(=O)n([C@@H](CCOC3CC3)C(=O)Nc3ccc(C(N)=O)cc3)cc2CO1` (single isomer, unassigned) [Example 27], the half-maximal inhibitory concentration (IC50) on human plasma kallikrein was 71 nM; at human factor XIa, 6.6 nM.
For `CO[C@@H](C)C[C@@H](C(=O)Nc1ccc(C(N)=O)cc1)n1cc2c(cc1=O)-c1cc(Cl)ccc1C[C@@H](C)OC2` (single isomer, unassigned) [Example 13] the same measures were 205 nM and 4.6 nM.
As to `CC[C@@H](C(=O)Nc1ccc(C(N)=O)cc1)n1cc2c(cc1=O)-c1c(ccc(Cl)c1F)C[C@@H](C)O[C@H]2C` (single isomer, unassigned) [Example 75], the IC50 was determined as 40 nM at human plasma kallikrein and 5.9 nM against human factor XIa.
`NC(=O)c1ccc(NC(=O)[C@H](C[C@@H]2CCCCO2)n2cc3c(cc2=O)-c2cc(Cl)ccc2C[C@@H](CO)OC3)cc1` (single isomer, unassigned) [Example 35]: the half-inhibitory concentration (IC50) against human plasma kallikrein stood at 170 nM; against human factor XIa it was 2.1 nM.
For `C[C@@H]1Cc2ccc(Cl)cc2-c2cc(=O)n([C@@H](C[C@@H]3COCCO3)C(=O)Nc3ccc4nn(C)nc4c3)cc2CO1` (single isomer, unassigned) [Example 12] the same measures were 42 nM and 3.3 nM.
`COCC[C@@H](C(=O)Nc1ccc(C(N)=O)c(F)c1)n1cc2c(cc1=O)-c1cc(Cl)ccc1C[C@@H](C(F)(F)F)OC2` (single isomer, unassigned) [Example 61]: the IC50 against human plasma kallikrein is 340 nM; at human factor XIa, 10 nM.
For `CC[C@@H](C(=O)Nc1ccc(C(N)=O)c(F)c1)n1cc2c(cc1=O)-c1cc(Cl)ccc1C[C@@H](C(F)F)OC2` (single isomer, unassigned) [Example 47] the same measures were 1500 nM and 56 nM.
As to `CC1Cc2ccc(Cl)cc2-c2cc(=O)n(C(C[C@@H]3CCCCO3)C(=O)Nc3ccc(C(N)=O)c(F)c3)cc2CO1` (single isomer, unassigned) [Example 1], the figures for the IC50 at human plasma kallikrein and against human factor XIa were 630 nM and 11 nM, respectively.
Take `CO[C@@H](C)C[C@@H](C(=O)Nc1ccc(C(N)=O)cc1)n1cc2c(cc1=O)-c1cc(Cl)ccc1C[C@@H](C)O[C@H]2C` (single isomer, unassigned) [Example 74]: the 50% inhibitory concentration (IC50) at human plasma kallikrein came out at 30 nM; at human factor XIa, 1.4 nM.
On the same counts, the results for `CO[C@@H](C)C[C@@H](C(=O)Nc1ccc(C(N)=O)cc1)n1cc2c(cc1=O)-c1c(ccc(Cl)c1F)C[C@@H](C)OC2` (single isomer, unassigned) [Example 29] are 47 nM and 1.6 nM.
For `CC[C@@H]1Cc2ccc(Cl)cc2-c2cc(=O)n(C(C[C@@H]3CCCCO3)C(=O)Nc3ccc(C(N)=O)c(F)c3)cc2CO1` (mixture of isomers) [Example 30, 4-{2-[(7R)-11-Chloro-7-ethyl-2-oxo-7,8-dihydro-2H-[3]benzoxocino[5,6-c]pyridin-3(5H)-yl]-3-[(2S)-tetrahydro-2H-pyran-2-yl]propanamido}-2-fluorobenzamide], the concentration for half-maximal inhibition (IC50) against human plasma kallikrein worked out at 1300 nM; at human factor XIa it was 25 nM.
For `C[C@@H]1Cc2ccc(Cl)cc2-c2cc(=O)n([C@@H](CCOC(C)(C)C)C(=O)Nc3ccn4ncnc4c3)cc2CO1` (single isomer, unassigned) [Example 26] the same measures were 170 nM and 28 nM.
For `CC1Cc2ccc(Cl)cc2-c2cc(=O)n(C(C[C@@H]3COCCO3)C(=O)Nc3ccc4nn(C)nc4c3)cc2CO1` (mixture of isomers) [Example 11, 2-(11-Chloro-7-methyl-2-oxo-7,8-dihydro-2H-[3]benzoxocino[5,6-c]pyridin-3(5H)-yl)-3-[(2R)-1,4-dioxan-2-yl]-N-(2-methyl-2H-benzotriazol-5-yl)propanamide] the same measures were 190 nM and 19 nM.
For `CC[C@@H](C(=O)Nc1ccc(C(N)=O)c(F)c1)n1cc2c(cc1=O)-c1cc(Cl)ccc1CC(C(F)F)OC2` (mixture of isomers) [Example 46, 4-({(2S)-2-[11-Chloro-7-(difluoromethyl)-2-oxo-7,8-dihydro-2H-[3]benzoxocino[5,6-c]pyridin-3(5H)-yl]butanoyl}amino)-2-fluorobenzamide] the same measures were 2300 nM and 110 nM.

By IC50 is commonly meant the point on the concentration scale where inhibition reaches its midpoint. A higher IC50 goes with weaker potency.
